≈ marks a conversion by molar mass, not a printed value. Like-named read-outs stand apart in the source and are kept apart here.
Key:
[1] = Solubility of compound (I) free base in buffers of varying pH, FeSSIF and FaSSIF; assay type: physicochemical
[2] = Dissolution of compound (I) mesylate salt vs free base in pH 4.5 aqueous media; assay type: physicochemical; conditions: 100 mg in 2 mL pH 4.5 aqueous media, 37° C.
[3] = Two-stage non-sink dissolution assay (kinetic solubility) of ASD formulations and unformulated API: simulated gastric media then FaSSIF; assay type: physicochemical; conditions: pH 1 gastric media, dosed concentration of about 2000 ug/mL
Description: The assay was performed in a modified USP II apparatus (paddles). The experiment measured the total drug dissolved in the presence of excess solid API (non-sink conditions), which included a combination of ‘free’ and colloidal or polymer-bound drug in solution. In some evaluations—to simulate the relatively high pH gastric environment in patients taking proton pump inhibitors—different simulated gastric media were used to begin the two-stage experiment: either pH 1 (HCl buffer) or pH 4 or 5 (acetate buffers) at a nominal compound (I) concentration of 2.0 mg/mL. In some other experiments, acetate buffer was replaced with a dilute HCl solution at similar pH, to better mimic the expected in vivo environment. After 30 minutes, the test material was transferred to fasted-state simulated intestinal fluid (FaSSIF) media consisting of physiologically relevant bile salts (SIF Powder, Biorelevant Inc.) in 100 mM phosphate buffer, and the compound (I) concentration was diluted to 1.0 mg/mL. pH of the phosphate buffer was adjusted as needed to obtain a simulated intestinal pH of 6.8±0.1 in the second stage of the dissolution experiment. The test material was sampled periodically throughout the test and samples were centrifuged at 13,000 r/min. The supernatant was diluted 1:1 with sample diluent and the compound (I) concentration was measured by HPLC. […]

[4] = Human PK, second comparative study: single dose food and PPI assessment of 100 mg powder-in-capsule (Panels J-M); assay type: in vivo; conditions: 100 mg PIC single dose
Description: The protocol is detailed Table 24 below wherein each panel contained 10 human subjects.

[5] = Panel K: high fat breakfast, no PPI
[6] = Panel L: fasted + rabeprazole 20 mg BID
[7] = Panel M: high fat breakfast + rabeprazole 20 mg BID

## CC1CN(C2COC2)CCN1c1ccc(Nc2cc(-c3ccnc(N4CCn5c(cc6c5CC(C)(C)C6)C4=O)c3CO)cn(C)c2=O)nc1 [Compound (A), (R)-2-(3′-(hydroxymethyl)-1-methyl-5-((5-(2-methyl-4-(oxetan-3-yl)piperazin-1-yl)pyridin-2-yl)amino)-6-oxo-1,6-dihydro-[3,4′-bipyridin]-2′-yl)-7,7-dimethyl-2,3,4,6,7,8-hexahydro-1H-cyclopenta[4,5]pyrrolo[1,2-a]pyrazin-1-one]
[1]; aqueous buffer, pH 2.6, aqueous buffer, read-out: aqueous solubility
  solubility: ~6.5 mg/mL (≈ 9780 µM)
[1]; aqueous buffer, pH 5.0, read-out: solubility
  solubility: ~0.001 mg/mL (≈ 1.5 µM)

## C[C@H]1CN(C2COC2)CCN1c1ccc(Nc2cc(-c3ccnc(N4CCn5c(cc6c5CC(C)(C)C6)C4=O)c3CO)cn(C)c2=O)nc1 [Compound (I) free base, (S)-2-(3′-(hydroxymethyl)-1-methyl-5-((5-(2-methyl-4-(oxetan-3-yl)piperazin-1-yl)pyridin-2-yl)amino)-6-oxo-1,6-dihydro-[3,4′-bipyridin]-2′-yl)-7,7-dimethyl-2,3,4,6,7,8-hexahydro-1H-cyclopenta[4,5]pyrrolo[1,2-a]pyrazin-1-one]
[2]; 15 min
  % dissolved: 0%
[2]; 30 min
  % dissolved: 0.5%
[2]; 45 min
  % dissolved: 2.3%
[2]; 60 min
  % dissolved: 4.1%
[3]
  kinetic dissolution in gastric media: fully dissolved
[1]; FaSSIF (pH 6.8), read-out: Solubility
  solubility: 0.013 mg/mL (≈ 19.6 µM)
[1]; FeSSIF (pH 5), read-out: Solubility
  solubility: 0.018 mg/mL (≈ 27.1 µM)
[1]; aqueous buffer, pH 2.54, aqueous buffer, read-out: Solubility
  solubility: 35.9 mg/mL (≈ 54000 µM)
[1]; aqueous buffer, pH 2.6, aqueous buffer, pH 2.60, read-out: Solubility
  solubility: 6.48 mg/mL (≈ 9750 µM)
[1]; aqueous buffer, pH 3.8, aqueous buffer, pH 3.80, read-out: Solubility
  solubility: 0.036 mg/mL (≈ 54.2 µM)
[1]; aqueous buffer, pH 5.04, aqueous buffer, read-out: Solubility
  solubility: 0.001 mg/mL (≈ 1.5 µM)
[1]; aqueous buffer, pH 6.94, aqueous buffer, read-out: Solubility
  solubility: 0.001 mg/mL (≈ 1.5 µM)
[1]; aqueous buffer, pH 7.76, aqueous buffer, read-out: Solubility
  solubility: 0.001 mg/mL (≈ 1.5 µM)
[4]; Panel J: fasted, no PPI
  plasma AUCinf, Mean: 1073 nM·h
  plasma HL-Lambda-z, Mean: 16 h
  plasma HL-Lambda-z, Median: 13 h
[4]; [5]
  plasma AUCinf, Mean: 1701 nM·h
  plasma HL-Lambda-z, Mean: 9.82 h
  plasma HL-Lambda-z, Median: 9.7 h
[4]; [6]
  plasma HL-Lambda-z, Mean: 12.8 h
  plasma HL-Lambda-z, Median: 11 h
[4]; [7]
  plasma HL-Lambda-z, Mean: 13.4 h
  plasma HL-Lambda-z, Median: 12 h
[4]; Panel M: high fat breakfast + rabeprazole 20 mg BID, read-out: plasma Cmax, Mean
  Cmax: 0.041 µM
[4]; plasma, oral, Panel L: fasted + rabeprazole 20 mg BID, read-out: plasma AUC0-24, Mean
  AUC(0-t): 157 nM·h
[4]; plasma, oral, Panel L: fasted + rabeprazole 20 mg BID, read-out: plasma AUC0-24, Median
  AUC(0-t): 160 nM·h
[4]; plasma, oral, Panel L: fasted + rabeprazole 20 mg BID, read-out: plasma AUCinf, Mean
  AUC(0-inf): 274 nM·h
[4]; plasma, oral, Panel L: fasted + rabeprazole 20 mg BID, read-out: plasma AUCinf, Median
  AUC(0-inf): 270 nM·h
[4]; plasma, oral, Panel L: fasted + rabeprazole 20 mg BID, read-out: plasma AUClast, Mean
  AUC(0-t): 261 nM·h
[4]; plasma, oral, Panel L: fasted + rabeprazole 20 mg BID, read-out: plasma AUClast, Median
  AUC(0-t): 270 nM·h
[4]; plasma, oral, Panel L: fasted + rabeprazole 20 mg BID, read-out: plasma Cmax, Mean
  Cmax: 0.0116 µM
[4]; plasma, oral, Panel L: fasted + rabeprazole 20 mg BID, read-out: plasma Cmax, Median
  Cmax: 0.012 µM
[4]; plasma, oral, Panel L: fasted + rabeprazole 20 mg BID, read-out: plasma Tmax, Mean
  Tmax: 5.7 h
[4]; plasma, oral, Panel L: fasted + rabeprazole 20 mg BID, read-out: plasma Tmax, Median
  Tmax: 4 h
[4]; plasma, oral, Panel M: high fat breakfast + rabeprazole 20 mg BID, read-out: plasma AUC0-24, Mean
  AUC(0-t): 471 nM·h
[4]; plasma, oral, Panel M: high fat breakfast + rabeprazole 20 mg BID, read-out: plasma AUC0-24, Median
  AUC(0-t): 520 nM·h
[4]; plasma, oral, Panel M: high fat breakfast + rabeprazole 20 mg BID, read-out: plasma AUCinf, Mean
  AUC(0-inf): 657 nM·h
[4]; plasma, oral, Panel M: high fat breakfast + rabeprazole 20 mg BID, read-out: plasma AUCinf, Median
  AUC(0-inf): 670 nM·h
[4]; plasma, oral, Panel M: high fat breakfast + rabeprazole 20 mg BID, read-out: plasma AUClast, Mean
  AUC(0-t): 642 nM·h
[4]; plasma, oral, Panel M: high fat breakfast + rabeprazole 20 mg BID, read-out: plasma AUClast, Median
  AUC(0-t): 660 nM·h
[4]; plasma, oral, Panel M: high fat breakfast + rabeprazole 20 mg BID, read-out: plasma Cmax, Mean
  Cmax: 0.0406 µM
[4]; plasma, oral, Panel M: high fat breakfast + rabeprazole 20 mg BID, read-out: plasma Cmax, Median
  Cmax: 0.04 µM
[4]; plasma, oral, Panel M: high fat breakfast + rabeprazole 20 mg BID, read-out: plasma Tmax, Mean
  Tmax: 6.9 h
[4]; plasma, oral, Panel M: high fat breakfast + rabeprazole 20 mg BID, read-out: plasma Tmax, Median
  Tmax: 7 h
[4]; plasma, oral, 100 mg, Panel J: fasted, no PPI, read-out: plasma AUC0-24, Mean
  AUC(0-t): 967 nM·h
[4]; plasma, oral, 100 mg, Panel J: fasted, no PPI, read-out: plasma AUC0-24, Median
  AUC(0-t): 980 nM·h
[4]; plasma, oral, 100 mg, Panel J: fasted, no PPI, read-out: plasma AUCinf, Mean
  AUC(0-inf): 1070 nM·h
[4]; plasma, oral, 100 mg, Panel J: fasted, no PPI, read-out: plasma AUCinf, Median
  AUC(0-inf): 1100 nM·h
[4]; plasma, oral, 100 mg, Panel J: fasted, no PPI, read-out: plasma AUClast, Mean
  AUC(0-t): 1060 nM·h
[4]; plasma, oral, 100 mg, Panel J: fasted, no PPI, read-out: plasma AUClast, Median
  AUC(0-t): 1000 nM·h
[4]; plasma, oral, 100 mg, Panel J: fasted, no PPI, read-out: plasma Cmax, Mean
  Cmax: 0.218 µM
[4]; plasma, oral, 100 mg, Panel J: fasted, no PPI, read-out: plasma Cmax, Median
  Cmax: 0.2 µM
[4]; plasma, oral, 100 mg, Panel J: fasted, no PPI, read-out: plasma Tmax, Mean
  Tmax: 1.5 h
[4]; plasma, oral, 100 mg, Panel J: fasted, no PPI, read-out: plasma Tmax, Median
  Tmax: 1.5 h
[4]; plasma, oral, 100 mg, Panel K: high fat breakfast, no PPI, read-out: plasma AUC0-24, Mean
  AUC(0-t): 1560 nM·h
[4]; plasma, oral, 100 mg, Panel K: high fat breakfast, no PPI, read-out: plasma AUC0-24, Median
  AUC(0-t): 1500 nM·h
[4]; plasma, oral, 100 mg, Panel K: high fat breakfast, no PPI, read-out: plasma AUCinf, Mean
  AUC(0-inf): 1700 nM·h
[4]; plasma, oral, 100 mg, Panel K: high fat breakfast, no PPI, read-out: plasma AUCinf, Median
  AUC(0-inf): 1600 nM·h
[4]; plasma, oral, 100 mg, Panel K: high fat breakfast, no PPI, read-out: plasma AUClast, Mean
  AUC(0-t): 1690 nM·h
[4]; plasma, oral, 100 mg, Panel K: high fat breakfast, no PPI, read-out: plasma AUClast, Median
  AUC(0-t): 1600 nM·h
[4]; plasma, oral, 100 mg, Panel K: high fat breakfast, no PPI, read-out: plasma Cmax, Mean
  Cmax: 0.235 µM
[4]; plasma, oral, 100 mg, Panel K: high fat breakfast, no PPI, read-out: plasma Cmax, Median
  Cmax: 0.25 µM
[4]; plasma, oral, 100 mg, Panel K: high fat breakfast, no PPI, read-out: plasma Tmax, Mean
  Tmax: 4 h
[4]; plasma, oral, 100 mg, Panel K: high fat breakfast, no PPI, read-out: plasma Tmax, Median
  Tmax: 4 h

Reference: patent US10246461B2, “Dosage form compositions comprising an inhibitor of bruton's tyrosine kinase” (Genentech, Inc., priority 2016, dated 2019)
